Assay results published in article PMC12970513, “Unsaturated Phosphorus Electrophiles to Probe Protein Tyrosine Phosphatases” (Angewandte Chemie (International Ed. in English), 2026).

Test system: PTP1B in MCF-7 cell lysate
Experiment: Proteomic profiling (SP2E enrichment, LC-MS/MS), MCF-7 lysate
Set-up: species or system human
Conditions: 500 µM SM-PO, vs DMSO
Experimental: Finally, we employed bottom‐up proteomics to validate that the labeled protein corresponds to the intended target PTP1B. For this, first MCF‐7 cell lysate (400 µg) was treated with 500 µM bio‐PO for 4 h. Directly afterwards, we applied a protocol described by the Kielkowski group, termed SP2E, which integrates protein purification with magnetic carboxyl‐coated beads and enrichment using magnetic streptavidin beads (Figure 5c). […] We reasoned that this might be due to the lower abundance of PTP1B in HEK293T compared to MCF‐7 lysate. Therefore, the protocol was repeated by doubling the proteome input to 800 µg. Following this minor adjustment, PTP1B was then enriched in our analysis (>4‐fold) (Figure 5e). […] However, this protein is included in the contamination repository for affinity purification (CRAPome) and appears in about half of such experiments as a contaminant. Given the comparably low PTP1B levels in Ramos lysate, we refrained from attempting pull‐down experiments from this cell line. […]
For proteome labelling using the SP2E workflow, a modified protocol by Becker et al. was followed.^[13] […] Tryptic peptides were eluted from the magnetic beads using a magnetic rack, samples were diluted and analyzed by qToF for purity i.e. absence of detergents and successful trypsin digestion. […]

SMILES: C#CP(=O)(O)Oc1ccc(CCNC(=O)CCCC[C@@H]2SC[C@@H]3NC(=O)N[C@@H]32)cc1 [SM-PO, 4-(2-biotinamidoethyl)phenyl ethynylphosphonic acid monoester]
- other proteins enriched by SM-PO: adipocyte plasma membrane–associated protein (APMAP) was identified among the enriched proteins
- enrichment of PTP1B or other phosphatases by SM-PO (enrichment >2 log2 fold change, p ≤ 0.05): neither PTP1B nor any other phosphatase was significantly enriched
